One assay deals with T1, β-catenin/E-cadherin (Homo sapiens, UniProt P35222).
T1 construct: Full-length β-catenin and (residues 1-781) were cloned into a pET-28b vector carrying a C-terminal 6× histidine; made in house; host or cells: E. coli BL21 DE3
T1 sequence (P35222 1-781): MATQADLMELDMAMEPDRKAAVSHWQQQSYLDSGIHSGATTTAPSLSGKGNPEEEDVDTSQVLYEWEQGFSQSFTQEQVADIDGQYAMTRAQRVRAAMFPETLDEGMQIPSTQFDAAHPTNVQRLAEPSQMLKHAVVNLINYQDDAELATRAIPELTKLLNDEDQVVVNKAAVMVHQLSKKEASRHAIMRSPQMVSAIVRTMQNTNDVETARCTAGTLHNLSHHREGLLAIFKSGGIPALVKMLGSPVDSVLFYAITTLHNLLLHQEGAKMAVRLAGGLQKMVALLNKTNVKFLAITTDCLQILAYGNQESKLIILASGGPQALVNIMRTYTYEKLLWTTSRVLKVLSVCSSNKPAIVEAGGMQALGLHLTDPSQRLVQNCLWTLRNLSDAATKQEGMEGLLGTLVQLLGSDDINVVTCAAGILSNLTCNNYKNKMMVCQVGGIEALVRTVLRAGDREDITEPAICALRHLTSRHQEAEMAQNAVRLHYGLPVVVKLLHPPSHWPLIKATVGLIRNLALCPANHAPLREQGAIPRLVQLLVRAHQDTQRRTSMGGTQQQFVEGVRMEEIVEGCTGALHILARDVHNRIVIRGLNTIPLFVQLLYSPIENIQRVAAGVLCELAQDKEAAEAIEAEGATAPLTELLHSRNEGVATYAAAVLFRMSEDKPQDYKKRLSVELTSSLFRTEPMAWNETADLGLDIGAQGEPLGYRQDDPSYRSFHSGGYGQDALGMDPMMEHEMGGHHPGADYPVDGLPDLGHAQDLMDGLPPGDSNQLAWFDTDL
The assay can be described thus: AlphaScreen selectivity assay, β-catenin/E-cadherin PPI. Type of assay: binding. To be noted: Table 2, read-out: Ki ± SD β-catenin/E-cadherin. The text has this: Compounds 4 and 5 were further evaluated with their selectivities for the disruption of β-catenin/BCL9 over β-catenin/E-cadherin interactions using the AlphaScreen selectivity assay (Zhang, M.; Wisniewski, J. A.; Ji, H AlphaScreen selectivity assay for, β-catenin/B-cell lymphoma 9 inhibitors. Anal. Biochen. 2015, 469, 43-53.).
BCL9 peptide synthesis and purification. Human BCL9 (residues 350-375), N-terminally biotinylated human BCL9 (residues 350-375), human E-cadherin (residues 824-877), and N-terminally biotinylated human E-cadherin (residues 824-877) were synthesized by InnoPep Inc. (San Diego, Calif., www.innopep.com). All synthesized peptides were purified by HPLC with purity >95%. […]
For the β-catenin/BCL9 assay, 5 nM of biotinylated BCL9 and 40 nM of His6-tagged β-catenin were incubated in assay buffer at 4° C. for 30 min. […] The IC50 value was determined by nonlinear least-square analysis of GraphPad Prism 5.0. The inhibition constant (Ki) values were derived from the IC50 values using a method reported by Nikolovska-Coleska et al (Nikolovska-Coleska, Z.; Wang, R.; Fang, X.; Pan, H.; Tomita, Y.; Li, P.; Roller, P. P.; Krajewski, K.; Saito, N. G.; Stuckey, J. A.; Wang, S. Development and optimization of a binding assay for the XIAP BIR3 domain using fluorescence polarization, Anal. Biochem. 2004, 332, 261-273.). […] The results were expressed as mean±standard deviation. […]
For orientation: Bead proximity is the source of the signal in Alpha formats.

The test system of another assay is MDA-MB-231. The assay can be described thus: MTs growth inhibition assay, MDA-MB-231. The class given is cell-based. To be noted: Homo sapiens, Wnt/β-catenin-hyperactive, 72 h, read-out: MTs IC50 ± SD MDA-MB-231. On the procedure: MTs cancer cell growth inhibition assays were conducted for 4 and 5. Three cancer cell lines with hyperactive Wnt/β-catenin signaling, SW480, HCT116, and MDA-MB-231. MTs cell viability assay. Colorectal cancer cell lines, SW480 and HCT116, and triple-negative breast cancer cell line MDA-MB-231 were seeded in 96-well plates at 4×10^3 cells/well, maintained overnight at 37° C., and incubated in the presence of 4 and 5 at various concentrations. Cell viability was monitored after 72 h using a freshly prepared mixture of 1 part phenazine methosulfate (PMS, Sigma) solution (0.92 mg/mL) and 19 parts 3-(4,5-dimethylthiazol-2-yl)-5-(3-carboxymethoxyphenyl)-2-(4-sulfophenyl)-2H-tetrazolium (MTs, Promega) solution (2 mg/mL). Cells were incubated in 10 μL of this solution at 37° C. for 3 h, and A490 was measured. The effect of each compound is expressed as the concentration required to reduce A490 by 50% (IC50) relative to vehicle-treated cells. Experiments were performed in triplicate.

The subject of assay [1] is TOPFlash (three wild-type Tcf binding sites) luciferase reporter. The assay can be described thus: Wnt-responsive TOPFlash luciferase reporter assay, SW480. Type of assay: cell-based. To be noted: Homo sapiens, 24 h treatment, read-out: TOPFlash IC50 ± SD SW480. On the procedure:
The TOPFlash luciferase reporter assay (in which the luciferase reporter has three wild-type Tcf4 binding sites) was performed with 4 and 5. Cell transfection and luciferase assay. FuGENE6 (E269A, Promega) 96 well plate format was used for the transfection of HEK293 and SW480 cells according to the manufacturer's instruction. HEK293 cells were co-transfected with 45 ng of TOPFlash or FOPFlash reporter gene, 135 ng pcDNA3.1-β-catenin, and 20 ng of pCMV-RL normalization reporter gene. SW480 cells were co-transfected with 60 ng of the TOPFlash or FOPFlash reporter gene and 40 ng of pCMV-RL normalization reporter. Cells were cultured in DMEM and 10% FBS at 37° C. for 24 h, and different concentrations of inhibitors or DMSO was added. After 24 h, the luciferase reporter activity was measured using the Dual-Glo system (E2940, Promega). Normalized luciferase activity in response to the treatment with 4 and 5 was compared with that obtained from the cells treated with DMSO. Experiments were performed in triplicate.
(In a reporter assay the amount or activity of a reporter protein is the signal.)

What is called IC50 is the midpoint of a concentration-inhibition curve. On to `Cl.Cl.O=C(Nc1ccc(O[C@@H]2CCNC2)c(-c2cccc(-c3nn[nH]n3)c2)c1)c1ccc(O[C@H]2CCNC2)c(-c2ccc(F)c(F)c2)c1` [Compound 4, 3′,4′-difluoro-6-(((S)-pyrrolidin-3-yl)oxy)-N-(6-(((R)-pyrrolidin-3-yl)oxy)-3′-(2H-tetrazol-5-yl)-[1,1′-biphenyl]-3-yl)-[1,1′-biphenyl]-3-carboxamide dihydrochloride], for which the Ki on β-catenin/E-cadherin was above 915 µM. Further, the IC50 stood at 73 ± 8.9 µM with MDA-MB-231 and 25 ± 2.7 µM in assay [1].

For the origin of these results see patent US20220411414A1, “INHIBITORS FOR THE B-CATENIN/B-CELL LYMPHOMA 9 (BCL9) PROTEIN-PROTEIN INTERACTION” (H. LEE MOFFITT CANCER CENTER AND RESEARCH INSTITUTE, INC., priority 2018, published 2022).
